Data from patent publication US8378097B2, “3-(1,3-benzodioxol-5-yl)-6-(4-cyclopropylpiperazin-1-yl)-pyridazine, its salts and solvates and its use as histamine H3 receptor antagonist” (High Point Pharmaceuticals, LLC, priority 2006, dated 2013).
Structures can show the parent of a compound that is named as a salt.

How the values were obtained:
[1] = tests with mice: intake of food; assay type: in vivo; settings: in tests with mice

For c1cc2c(cc1-c1ccc(N3CCN(C4CC4)CC3)nn1)OCO2 [Example 1, 3-(1,3-Benzodioxol-5-yl)-6-(4-cyclopropylpiperazin-1-yl)pyridazine dihydrochloride], which mutagenic activity (mutagenic activity test) is on record?
Its mutagenic activity is “No mutagenic activity”.

And the “effect on the intake of food” value [1]?
The value was “reducing effect on the intake of food”.
